{"source": "patent US10004785B2", "about": "“LKKTET and/or LKKTNT peptide compositions which are lyophilized or in a form capable of being lyophilized” (RegeneRX Biopharmaceuticals, Inc., priority 2005, dated 2018)", "key": {"[1]": {"tested_on": "Human corneal epithelial cells", "assay": "colorimetric BrdU incorporation assay (cell proliferation)", "type": "cell-based", "details": "1 mcg/ml Tβ4, 3 and 24 hour time points", "procedure": "(§1) Human corneal epithelial cells at approximately 80% confluence were treated with 0%, 0.001%, 0.01%, or 0.1% BAK for 15 minutes. After 3 and 24 hours of recovery in culture medium, cell proliferation was measured using a colorimetric BrdU incorporation assay. Apoptosis was measured using a colorimetric annexin-based cell death assay. […] To further assess the ability of Tb4 to prevent apoptosis, corneal epithelial cells were treated with 0.01% BAK±Tβ4 over a 5 day time course."}, "[2]": {"tested_on": "Human corneal epithelial cells", "assay": "colorimetric annexin-based cell death assay (apoptosis)", "details": "1 mcg/ml Tβ4, 3 and 24 hour time points", "procedure": "as §1"}}, "data": [{"substance": "Thymosin beta 4 (SDKPDMAEIEKFDKSKLKKTETQEKNPLPSKETIEQEKQAGES; Thymosin beta-4; UniProt P62328 2-44, looked up) [Tβ4, a 43 amino acid, 4.9 kDa ubiquitous polypeptide originally isolated from the thymus]", "values": [{"measurement": "cell proliferation of BAK-treated corneal epithelial cells", "setting": "[1]", "value": "not promoted"}, {"measurement": "apoptosis of BAK-treated corneal epithelial cells", "setting": "[2]", "value": "not inhibited"}]}]}
